Values of other authors as cited in patent US8580861B2, “Chemical composition for skin care formulations” (Pibed Limited, priority 2008, dated 2013).
Where two headings read alike, the source gives them in different places.

How the values were obtained:
Microsporum gypseum [1] = conditions: 10% in Vaseline petroleum jelly, topical, daily for 3 weeks; for histopathologic examination of skin tissues: versus positive control
Microsporum gypseum [2] = conditions: M. gypseum
Lactobacillus fermentum = conditions: flow cytometry
Staphylococcus aureus = conditions: low concentrations (0.5 to 2 mM), disk diffusion

Compound | MIC (Microsporum gypseum [2]) | MIC (Microsporum gypseum [2]; positive control) | hair culture test (Microsporum gypseum [1]) | skin lesion scoring (Microsporum gypseum [1]) | histopathologic examination of skin tissues (Microsporum gypseum [1]) | sensitization to polymyxin B (Escherichia coli) | intracellular accumulation of ethidium bromide by live cells (Lactobacillus fermentum) | susceptibility to ciprofloxacin, clindamycin, erythromycin, gentamicin, tetracycline, and vancomycin (Staphylococcus aureus)
CC(C)=CCCC(C)=CCCC(C)=CCO [farnesol] |  |  |  |  |  | sensitized Escherichia coli to polymyxin B | promoted the intracellular accumulation | 
CC(C)=CCC[C@](C)(O)C1CC=C(C)CC1 (some centres unmarked) [bisabolol] |  |  |  |  |  |  | promoted the intracellular accumulation | enhanced the susceptibility of Staphylococcus aureus
CC(C)=CCC/C(C)=C/CC1CCCC1=O (centres unmarked) [apritone] |  |  |  |  |  |  | promoted the intracellular accumulation | enhanced the susceptibility of Staphylococcus aureus

Continued, in another order:

MIC (Microsporum gypseum [2]) | MIC (Microsporum gypseum [2]; positive control) | Compound | hair culture test (Microsporum gypseum [1]) | skin lesion scoring (Microsporum gypseum [1]) | histopathologic examination of skin tissues (Microsporum gypseum [1]) | sensitization to polymyxin B (Escherichia coli) | intracellular accumulation of ethidium bromide by live cells (Lactobacillus fermentum) | susceptibility to ciprofloxacin, clindamycin, erythromycin, gentamicin, tetracycline, and vancomycin (Staphylococcus aureus)
0.5-2% |  | C=CC(C)(O)CCC=C(C)CCC=C(C)C (centres unmarked) [nerolidol, 3,7,11-trimethyl1,6,10-dodecatrien-3-ol] | improved the skin lesions infected by M. gypseum | clinically effective at improving the lesion during the first week of application | lower degree of hyperkeratosis and inflammatory cell infiltration than the positive control | sensitized Escherichia coli to polymyxin B | promoted the intracellular accumulation | enhanced the susceptibility of Staphylococcus aureus
0.01-0.03% |  | C=CCc1ccc(O)c(OC)c1 [eugenol] |  | clinically effective at improving the lesion during the first week of application | lower degree of hyperkeratosis and inflammatory cell infiltration than the positive control |  |  | 
 | 4 to 16 µg/mL | Clc1ccc(COC(Cn2ccnc2)c2ccc(Cl)cc2Cl)cc1 (centres unmarked) [econazole] |  |  |  |  |  | 
